This passage reports IC50 results from BindingDB's records for patent US20250313563 (The Broad Institute, 2025).

Structures are written as SMILES.

Test [1] addresses Glycogen synthase kinase-3 alpha (Homo sapiens, UniProt P49840). The test can be described thus: TR-FRET Assay. The method in brief:
(§1)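 TR-FRET readout: streptavidin-d2 (40 nM in added detection mix) plus Tb-anti-pSer641 Ab (2 nM in mix). Steps were 30 min compound preincubation, kinase reaction, then EDTA stop.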

In test [2] the target is Glycogen synthase kinase-3 beta (Homo sapiens, UniProt P49841). As to the kind of experiment: TR-FRET Assay. The method in brief: as §1
Sequence of Glycogen synthase kinase-3 beta (P49841 whole entry): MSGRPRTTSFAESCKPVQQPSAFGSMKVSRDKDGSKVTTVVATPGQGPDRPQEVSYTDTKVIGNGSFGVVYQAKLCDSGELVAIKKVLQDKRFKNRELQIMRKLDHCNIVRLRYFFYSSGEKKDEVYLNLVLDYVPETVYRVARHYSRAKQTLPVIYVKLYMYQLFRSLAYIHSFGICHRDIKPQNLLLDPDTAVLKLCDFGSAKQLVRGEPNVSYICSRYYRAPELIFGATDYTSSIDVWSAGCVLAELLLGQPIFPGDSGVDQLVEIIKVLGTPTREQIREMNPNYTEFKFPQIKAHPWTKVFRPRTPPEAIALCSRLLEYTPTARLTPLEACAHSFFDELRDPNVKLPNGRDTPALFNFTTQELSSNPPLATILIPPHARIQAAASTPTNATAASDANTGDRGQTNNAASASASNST
Background: Time-resolved FRET reads energy transfer from a long-lived donor to a nearby acceptor.

Sequence of Glycogen synthase kinase-3 alpha (P49840 whole entry): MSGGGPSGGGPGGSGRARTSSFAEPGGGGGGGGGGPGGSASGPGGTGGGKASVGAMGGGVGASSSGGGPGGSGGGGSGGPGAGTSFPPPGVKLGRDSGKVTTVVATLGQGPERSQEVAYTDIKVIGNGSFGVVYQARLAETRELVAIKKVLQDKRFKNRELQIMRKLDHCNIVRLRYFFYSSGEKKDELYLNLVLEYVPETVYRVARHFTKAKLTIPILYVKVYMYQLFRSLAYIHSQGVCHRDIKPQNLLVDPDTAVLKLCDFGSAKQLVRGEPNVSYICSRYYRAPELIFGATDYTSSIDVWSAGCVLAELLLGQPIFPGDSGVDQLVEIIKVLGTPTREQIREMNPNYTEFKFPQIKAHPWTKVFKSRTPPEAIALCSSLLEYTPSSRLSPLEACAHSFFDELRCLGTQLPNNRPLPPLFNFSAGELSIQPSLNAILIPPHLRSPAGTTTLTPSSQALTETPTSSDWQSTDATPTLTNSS

Consider `CCC1(c2cccc(C(F)(F)F)c2)C2=CN=NC2NC2=C1C(=O)CC(C)(C)C2` (stereo not drawn) [US20250313563, Compound 785762], for which the IC50 in test [1] and in test [2] was below 100 nM in each case.
Consider `CC[C@@]1(c2ccccc2)C2=CN=NC2NC2=C1C(=O)[C@H](F)C(C)(C)C2` (stereo partly drawn) [US20250313563, Compound 957404], for which the IC50 in test [1] and in test [2] was above 5000 nM in each case.
With `CC[C@@]1(c2cccc(N3CCC[C@H]3C)c2)C2=CN=NC2NC2=C1C(=O)CC(C)(C)C2` (stereo partly drawn) [US20250313563, Compound 918322], the IC50 in test [1] and in test [2] was above 5000 nM in each case.
For `CCC1(c2cccc(Br)c2)C2=CN=NC2NC2=C1C(=O)C(F)C(C)(C)C2` (stereo not drawn) [US20250313563, Compound 826764], the half-inhibitory concentration (IC50) in test [1] was below 100 nM; in test [2], 100 to 1000 nM.
On the same counts, the results for `C[C@H]1C[C@@H]2C[C@@]3(C[C@@H]2C1)C1=CN=NC1NC1=C3C(=O)CC(C)(C)C1` (stereo partly drawn) [US20250313563, Compound 943896] are below 100 nM and below 100 nM.
The corresponding values for `CCCS(=O)(=O)c1cccc(C2(CC)C3=CN=NC3NC3=C2C(=O)CC(C)(C)C3)c1` (stereo not drawn) [US20250313563, Compound 917131] are below 100 nM and below 100 nM.
The corresponding values for `CC[C@]1(c2cccc(C)c2)C2=C(CC(C)(C)CC2=O)NC2N=NC(C(F)(F)F)=C21` (stereo partly drawn) [US20250313563, Compound 883872] are 1000 to 5000 nM and above 5000 nM.
As to `CCC1(c2cccc(C(F)(F)F)c2)C2=CN=NC2NC2=C1C(=O)NC(C(C)(C)C)C2` (stereo not drawn) [US20250313563, Compound 945635], the figures for the IC50 in test [1] and in test [2] were below 100 nM and 100 to 1000 nM, respectively.
`CC1(C)CC2=C(C(=O)N1)C1(CCN(S(C)(=O)=O)CC1)C1=C(N=NC1)N2` [US20250313563, Compound 943959]: the half-maximal inhibitory concentration (IC50) in test [1] was below 100 nM; in test [2] it was 100 to 1000 nM.
On the same counts, the results for `COc1cncc(S(=O)(=O)N2CCC3(CC2)C2=C(N=NC2)NC2=C3C(=O)CC(C)(C)C2)c1` [US20250313563, Compound 947465] are below 100 nM and below 100 nM.
For the compound `CC[C@]1(c2cccc(OC)c2)C2=C(CC(C)(C)NC2=O)NC2N=NC(C)=C21` (stereo partly drawn) [US20250313563, Compound 949328], the IC50 was 1000 to 5000 nM in test [1] and above 5000 nM in test [2].
Consider `CCC1(c2cccc(-c3cncn3C)c2)C2=CN=NC2NC2=C1C(=O)NC(C)(C)C2` (stereo not drawn) [US20250313563, Compound 945597], for which the IC50 in test [1] and in test [2] was below 100 nM each time.
With `O=C1CC2(CCCC2)CC2=C1C1(CCOCC1)C1=C(N=NC1)N2` [US20250313563, Compound 893308], the figures for the IC50 in test [1] and in test [2] were below 100 nM and 100 to 1000 nM, respectively.
The corresponding values for `CC[C@@]1(c2cccc(Cc3ncccc3C(F)(F)F)c2)C2=CN=NC2NC2=C1C(=O)CC(C)(C)C2` (stereo partly drawn) [US20250313563, Compound 947665] are 1000 to 5000 nM and above 5000 nM.
On the same counts, the results for `CC1(C)CC(=O)C2=C(C1)NC1=C(CN=N1)C21COC1` [US20250313563, Compound 889569] are 100 to 1000 nM and 100 to 1000 nM.
The corresponding values for `CC1(C)CC(=O)C2=C(C1)NC1=C(CN=N1)C21CN(Cc2ccccn2)C1` [US20250313563, Compound 929438] are above 5000 nM and above 5000 nM.
As to `CCC1(c2cccc(N(C)c3cnccn3)c2)C2=CN=NC2NC2=C1C(=O)CC(C)(C)C2` (stereo not drawn) [US20250313563, Compound 902971], the IC50 in test [1] and in test [2] was below 100 nM in each case.
On to `CC[C@]1(c2cccc(-c3cc(C)ncc3C)c2)C2=CN=NC2NC2=C1C(=O)CC(C)(C)C2` (stereo partly drawn) [US20250313563, Compound 943514], for which the half-maximal inhibitory concentration (IC50) in test [1] and in test [2] was below 100 nM throughout.
Turning to `CCC1(c2cccc(N3CC(C)(C)C3C(C)C)c2)C2=CN=NC2NC2=C1C(=O)CC(C)(C)C2` (stereo not drawn) [US20250313563, Compound 902969], the IC50 is 100 to 1000 nM in test [1] and 1000 to 5000 nM in test [2].
Consider `CC[C@@]1(c2cccc(-c3ccncc3)c2)C2=CN=NC2NC2=C1C(=O)CC(C)(C)[C@@H]2F` (stereo partly drawn) [US20250313563, Compound 959344], for which the IC50 in test [1] and in test [2] was above 5000 nM throughout.
With `CCC1(c2cccc(-c3cn(C)nc3C)c2)C2=C(CC(C)(C)NC2=O)NC2N=NC(C(F)(F)F)=C21` (stereo not drawn) [US20250313563, Compound 947567], the 50% inhibitory concentration (IC50) in test [1] and in test [2] was below 100 nM each time.
As to `CC1(C)CC(=O)C2=C(C1)NC1=C(CN=N1)[C@]21C[C@H](OCc2ccccc2)C1` [US20250313563, Compound 909210], the IC50 in test [1] and in test [2] was 100 to 1000 nM in each case.
Take `CCC1(c2cccc(-c3cnn(C)c3)c2)C2=CN=NC2NC2=C1C(=O)NC(C)(C)C2` (stereo not drawn) [US20250313563, Compound 943912]: the IC50 in test [1] is below 100 nM; in test [2], 1000 to 5000 nM.
The corresponding values for `CCC1(c2cccc(-c3cnnn3C)c2)C2=CN=NC2NC2=C1C(=O)CC(C)(C)C2` (stereo not drawn) [US20250313563, Compound 947398] are below 100 nM and below 100 nM.
For `CC[C@@]1(c2cccc(OCC(F)F)c2)C2=CN=NC2NC2=C1C(=O)CC(C)(C)C2` (stereo partly drawn) [US20250313563, Compound 949113], the IC50 in test [1] is 1000 to 5000 nM; in test [2] it was above 5000 nM.
On the same counts, the results for `CCC1(c2cccc(C(F)(F)F)c2)C2=CN=NC2NC2=C1C(=O)N(c1ccccc1)C2` (stereo not drawn) [US20250313563, Compound 918313] are 100 to 1000 nM and 1000 to 5000 nM.
For `CCC1(c2cccc(C(F)(F)F)c2)C2=C(N=NC2)NC2=C1C(=O)NCCC2` (stereo not drawn) [US20250313563, Compound 913355], the half-maximal inhibitory concentration (IC50) in test [1] and in test [2] was above 5000 nM each time.
On to `CC[C@@]1(c2cccc(-c3ccnn3C)c2)C2=CN=NC2NC2=C1C(=O)CC(C)(C)[C@H]2F` (stereo partly drawn) [US20250313563, Compound 957508], for which the IC50 in test [1] and in test [2] was above 5000 nM throughout.
Regarding `CN1C[C@]2(C3=C(CC(C)(C)CC3=O)NC3N=NC(C4CC(F)(F)C4)=C32)c2ccccc21` (stereo partly drawn) [US20250313563, Compound 119047], the half-inhibitory concentration (IC50) in test [1] fell in the range of 1000 to 5000 nM; in test [2], 100 to 1000 nM.
Turning to `CC[C@@]1(c2cccc(-c3cn(C)nc3C(C)C)c2)C2=C(CC(C)(C)CC2=O)NC2N=NC(C)=C21` (stereo partly drawn) [US20250313563, Compound 913029], the concentration for half-maximal inhibition (IC50) in test [1] and in test [2] was below 100 nM in each case.
In the case of `CCC1(c2cc(N3CCOCC3)ccc2F)C2=CN=NC2NC2=C1C(=O)CC(C)(C)C2` (stereo not drawn) [US20250313563, Compound 909203], the half-maximal inhibitory concentration (IC50) lay in the range of 100 to 1000 nM in test [1] and 1000 to 5000 nM in test [2].
The corresponding values for `CCC1(c2cccc(-c3cnnn3C(C)C)c2)C2=CN=NC2NC2=C1C(=O)CC(C)(C)C2` (stereo not drawn) [US20250313563, Compound 947397] are below 100 nM and below 100 nM.
As for `CC1(C)CC(=O)C2=C(C1)NC1=C(CN=N1)C21CN(S(=O)(=O)CC2CC2)C1` [US20250313563, Compound 929440], the IC50 in test [1] and in test [2] was below 100 nM in each case.
Turning to `CCC1(c2cccc(-c3cc(OC)ncn3)c2)C2=CN=NC2NC2=C1C(=O)CC(C)(C)C2` (stereo not drawn) [US20250313563, Compound 948093], the values for the IC50 in test [1] and in test [2] were below 100 nM and 100 to 1000 nM, respectively.

As a reminder, the IC50 is the midpoint of a concentration-inhibition curve. Read a high IC50 as weaker potency.
